Laboratory results reported in patent US20230331803A1, “CO-AGONISTS OF THE GLP-1 AND AMYLIN RECEPTORS” (priority 2020, published 2023).
Like-named read-outs stand apart in the source and are kept apart here. Starred links: 1 amine or outer side, 2 acyl side, 3 side chain; linkers in the order of their positions; H or OH if unused. Non-standard residues stand in square brackets, D forms with d. Groups on a side chain read outwards from the residue. *: point of attachment. C20 diacid = O=C(O)CCCCCCCCCCCCCCCCCCC(=O)*; C18 diacid = O=C(O)CCCCCCCCCCCCCCCCC(=O)*; C16 diacid = O=C(O)CCCCCCCCCCCCCCC(=O)*; γGlu = O=C(O)[C@H](CCC(=O)[*:2])N[*:1]; Desaminohistidyl = O=C(CCc1c[nH]cn1)*; AEEA = NCCOCCOCC(=O)O; Aib = CC(C)(N)C(=O)O

Tests used:
[1] = molecular target: T1, human amylin receptor (hAmyR3) (Homo sapiens, UniProt O60896+P30988); test: Human amylin receptor in vitro potency assay (CRE-luciferase reporter, BHK cells); assay type: cell-based; settings: for Ability to agonise the amylin receptor, in words: Tables 4a-4c;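 for all read-outs here: BHK cells expressing human calcitonin receptor plus RAMP3 (amylin-3 receptor) with a CRE-luciferase reporter, agonist activity read as luminescence from cAMP-driven transcription, 7-point serial dilutions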
T1 construct: host or cells: BHK cells (Hollex-1 line: human calcitonin receptor (a) + CRE-Luc), further transfected with human RAMP3

human GLP-1 receptor = molecular target: T2, human GLP-1 receptor (Homo sapiens, UniProt P43220); test: Human GLP-1 receptor in vitro potency assay (CRE-luciferase reporter, BHK cells); assay type: cell-based
T2 construct: expressed in transfected cells; host or cells: BHK (Baby Hamster Kidney) cells, clone BHK 467-12A KZ-10, stably transfected, with CRE-luciferase reporter
Experimental: It is thus possible to measure GLP-1 receptor activity using a CRE-luciferase reporter gene introduced into Baby Hamster Kidney (BHK) cells co-expressing the GLP-1 receptor.
Cells were aliquoted and stored at -180° C. until use.
Plates were sealed and incubated at room temperature with gentle shaking for 30 minutes while protected from light. Luminescence was detected on a luminescence plate reader e.g. a Synergy 2 (BioTek).

[2] = Table 4a, BHK hAmyR3/CRE-Luc cells, 3 hours, read-out: Human AmyR3 potency [EC50 (pM)]
[3] = Table 4a, BHK cells expressing human GLP-1R, CRE-Luc, 3 hours, read-out: Human GLP-1R potency [EC50 (pM)]

T2 sequence (P43220 24-463): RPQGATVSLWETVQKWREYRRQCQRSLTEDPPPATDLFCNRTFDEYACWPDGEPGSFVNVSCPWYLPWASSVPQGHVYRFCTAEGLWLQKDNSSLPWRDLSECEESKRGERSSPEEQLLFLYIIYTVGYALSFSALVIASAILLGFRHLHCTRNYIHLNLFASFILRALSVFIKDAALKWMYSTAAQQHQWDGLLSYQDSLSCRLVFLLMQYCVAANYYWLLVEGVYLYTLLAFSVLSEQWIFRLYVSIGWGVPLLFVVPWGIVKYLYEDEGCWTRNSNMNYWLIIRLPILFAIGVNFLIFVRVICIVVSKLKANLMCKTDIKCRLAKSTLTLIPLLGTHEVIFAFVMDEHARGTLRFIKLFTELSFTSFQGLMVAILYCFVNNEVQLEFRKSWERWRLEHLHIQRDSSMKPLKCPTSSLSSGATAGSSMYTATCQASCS
T1 sequence (P30988 25-474): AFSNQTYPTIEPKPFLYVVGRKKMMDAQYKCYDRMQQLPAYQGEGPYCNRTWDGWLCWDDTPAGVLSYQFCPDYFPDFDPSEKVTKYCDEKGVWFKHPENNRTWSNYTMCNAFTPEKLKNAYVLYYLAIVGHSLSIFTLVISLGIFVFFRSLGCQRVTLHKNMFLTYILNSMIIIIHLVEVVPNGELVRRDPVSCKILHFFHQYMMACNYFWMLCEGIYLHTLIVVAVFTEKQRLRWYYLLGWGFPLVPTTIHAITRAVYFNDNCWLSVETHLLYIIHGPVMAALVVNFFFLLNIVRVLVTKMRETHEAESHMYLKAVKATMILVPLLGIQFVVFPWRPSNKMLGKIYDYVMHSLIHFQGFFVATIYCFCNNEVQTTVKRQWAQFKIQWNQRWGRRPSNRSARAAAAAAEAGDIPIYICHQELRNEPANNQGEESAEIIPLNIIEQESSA
T1 sequence (O60896 24-148): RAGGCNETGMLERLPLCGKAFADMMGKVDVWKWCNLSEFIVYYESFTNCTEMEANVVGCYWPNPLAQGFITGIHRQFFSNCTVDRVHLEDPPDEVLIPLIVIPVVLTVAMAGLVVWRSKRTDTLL

Compound	EC50 [1, 2] [pM]	EC50 (human GLP-1 receptor; [3]) [pM]	Ability to agonise the amylin receptor, in words [1]	further results
CC[C@H](C)[C@H](NC(=O)[C@H](Cc1ccccc1)NC(=O)[C@H](CCC(=O)O)NC(=O)[C@H](CCCNC(=N)N)NC(=O)[C@H](C)NC(=O)[C@H](C)NC(=O)[C@H](CCC(N)=O)NC(=O)[C@H](CCC(=O)O)NC(=O)[C@H](CCC(=O)O)NC(=O)[C@H](CC(C)C)NC(=O)[C@H](Cc1ccc(O)cc1)NC(=O)[C@H](CO)NC(=O)[C@H](CO)NC(=O)[C@H](CCCCNC(=O)COCCOCCNC(=O)COCCOCCNC(=O)CC[C@H](NC(=O)CCCCCCCCCCCCCCCCC(=O)O)C(=O)O)NC(=O)[C@H](CC(=O)O)NC(=O)[C@H](CO)NC(=O)[C@@H](NC(=O)[C@H](Cc1ccccc1)NC(=O)[C@@H](NC(=O)CNC(=O)[C@H](CCC(=O)O)NC(=O)[C@H](Cc1c[nH]c2ccccc12)NC(=O)[C@@H](N)Cc1c[nH]cn1)[C@@H](C)O)[C@@H](C)O)C(=O)N[C@@H](CCC(=O)O)C(=O)N[C@@H](Cc1c[nH]c2ccccc12)C(=O)N[C@@H](CC(C)C)C(=O)N[C@H](C(=O)N[C@@H](CCCNC(=N)N)C(=O)NCC(=O)N[C@@H](CCCNC(=N)N)C(=O)NCC(=O)N[C@@H](CCC(=O)O)C(=O)N[C@@H](C)C(=O)N[C@@H](CO)C(=O)N[C@@H](CCC(=O)O)C(=O)N[C@@H](CC(C)C)C(=O)N[C@@H](CO)C(=O)N[C@H](C(=O)N[C@@H](C)C(=O)N[C@@H](C)C(=O)N[C@@H](CC(C)C)C(=O)NCC(=O)N[C@@H](CCCNC(=N)N)C(=O)N[C@@H](CC(C)C)C(=O)N[C@@H](CO)C(=O)N[C@@H](C)C(=O)N[C@@H](CCC(=O)O)C(=O)N[C@@H](CC(C)C)C(=O)N[C@@H](Cc1c[nH]cn1)C(=O)N[C@@H](CCC(=O)O)C(=O)N[C@@H](CC(C)C)C(=O)N[C@@H](C)C(=O)N[C@H](C(=O)N[C@@H](CC(C)C)C(=O)N1CCC[C@H]1C(=O)N[C@@H](CCCNC(=N)N)C(=O)N[C@H](C(=O)N[C@@H](CCC(=O)O)C(=O)N[C@H](C(=O)NCC(=O)N[C@@H](CO)C(=O)NCC(=O)N[C@@H](CO)C(=O)N1CCC[C@H]1C(N)=O)[C@@H](C)O)[C@@H](C)O)[C@@H](C)O)[C@@H](C)O)C(C)C [Compound 0273]	–	–	–	EC50 [1]: 18 pM; EC50 (human GLP-1 receptor): 24.9 pM
H-Aib-EGTFTSDVSSYLEEQAAREFIAWLVRGR-K([2-[2-[2-[[2-[2-[2-[[(4S)-4-Carboxy-4-(17-Carboxyheptadecanoylamino)Butanoyl]Amino]Ethoxy]Ethoxy]Acetyl]Amino]Ethoxy]Ethoxy]Acetyl])-GGGGEKCNTATCATQRLAEFLRHSSNNFGPILPPTNVGSNTP-amide [Comparator compound 0672, reference compound]	–	–	impaired potency on the amylin receptor	EC50 ([1]; Table 4b, reference and comparator compounds, read-out: Human AmyR3 potency [EC50 (pM)]): 606 pM; Ability to agonise the GLP-1 receptor, in words (human GLP-1 receptor; Tables 4a-4c): retained their potencies on the GLP-1 receptor; EC50 (human GLP-1 receptor; read-out: Human GLP-1 R potency [EC50 (pM)], Table 4b, reference and comparator compounds): 2.2 pM
H-Aib-EGTFTSDVSSYLEGQAA-K([2-[2-[2-[[2-[2-[2-[[(4S)-4-Carboxy-4-(17-Carboxyheptadecanoylamino)Butanoyl]Amino]Ethoxy]Ethoxy]Acetyl]Amino]Ethoxy]Ethoxy]Acetyl])-EFIAWLVRGRGGQEPGQEPCNTATCATQRLAEFLRHSSNNFGPILPPTNVGSNTP-amide [Comparator compound 0015, reference compound]	–	–	poor agonist of the amylin receptor	EC50 ([1]; Table 4c, further comparator compounds, read-out: Human AmyR3 potency [EC50 (pM)]): 312 pM; EC50 (human GLP-1 receptor; read-out: Human GLP-1 R potency [EC50 (pM)], Table 4c, further comparator compounds): 45 pM
H-HAEGTFTSDK([AEEA-AEEA-γGlu-C16 diacid])SSYLEEK([AEEA-AEEA-γGlu-C16 diacid])AAREFIEWLVRGRGEASELSTAALGRLSAELHELATLPRTETGSGSP-NH2 [Compound 0475]	66.8	70.4	–	–

The next lines start with results.

EC50 [1, 2] [pM]	EC50 (human GLP-1 receptor; [3]) [pM]	Ability to agonise the amylin receptor, in words [1]	Compound	further results
19.5	14.3	–	Desaminohistidyl-AEGTFTSDVSSYLEEQAAREFIAWLVRGRK([AEEA-AEEA-γGlu-C18 diacid])EASELSTAALGRLSAELHELATLPRTETGSGSP-NH2 [Compound 0051]	–
15.4	88.2	–	Desaminohistidyl-[Aib]EGTFTSDVSSYLEEQAAREFIAWLVRGRK([γGlu-C20 diacid])EASELSTAALGRLSAELHELATLPRTETGSGSP-NH2 [Compound 0142]	–
